Test results as given in patent publication US20070142362A1, “4,5-Dihydro-(1H)-pyrazole derivatives as cannabinoid CB1 receptor modulators” (SOLVAY PHARMACEUTICALS B.V., priority 2005, published 2007).

How the values were obtained:
human CB1 receptor = molecular target: T1, human CB1 receptor (Homo sapiens, UniProt P21554); assay: In vitro cannabinoid-CB1 receptor (ant)agonism: [3H]-arachidonic acid release in CHO cells; assay type: cell-based; conditions: CHO cells with human CB1 receptor, read-out: Human CB1 Arachidonic acid release (CB1) pEC50 (converted)
T1 construct: expressed in transfected cells; host or cells: CHO cells
Protocol: In Vitro Cannabinoid-CB1Receptor (Ant)Agonism
In vitro CB1 receptor antagonism/agonism can be assessed with the human CB1 receptor cloned in Chinese hamster ovary (CHO) cells. CHO cells are grown in a Dulbecco's Modified Eagle's medium (DMEM) culture medium, supplemented with 10% heat-inactivated fetal calf serum. Medium is aspirated and replaced by DMEM, without fetal calf serum, but containing [^3H]-arachidonic acid and incubated overnight in a cell culture stove (5% CO2/95% air; 37° C.; water-saturated atmosphere). During this period [^3H]-arachidonic acid is incorporated in membrane phospholipids. On the test day, medium is aspirated and cells are washed three times using 0.5 ml DMEM, containing 0.2% bovine serum albumin (BSA). CB1 agonist stimulation leads to activation of PLA2 followed by release of [^3H]-arachidonic acid into the medium. This CB1 agonist-induced release is concentration-dependently antagonized by CB1 receptor antagonists, such as for example rimonabant.

[1] = molecular target: T2, human cannabinoid CB1 receptor (Homo sapiens, UniProt P21554); assay: In vitro affinity for cannabinoid-CB1 receptors ([3H]CP-55,940 radioligand binding, CHO cell membranes); conditions: mean of at least three independent experiments, read-out: Human CB1 receptor binding pKi (converted)
T2 construct: expressed in transfected cells; host or cells: CHO cells, stably transfected; membrane preparation
Protocol: In Vitro Affinity for Cannabinoid-CB1 Receptors
(§1) The affinity of the compounds of the invention for cannabinoid CB1 receptors can be determined using membrane preparations of Chinese hamster ovary (CHO) cells in which the human cannabinoid CB1 receptor is stably transfected in conjunction with [^3H]CP-55,940 as radioligand. After incubation of a freshly prepared cell membrane preparation with the [^3H]-ligand, with or without addition of compounds of the invention, separation of bound and free ligand is performed by filtration over glassfiber filters. Radioactivity on the filter is measured by liquid scintillation counting.

[2] = molecular target: T3, human cannabinoid CB2 receptor (Homo sapiens, UniProt P34972); assay: In vitro affinity for cannabinoid-CB2 receptors ([3H]CP-55,940 radioligand binding, CHO cell membranes); conditions: mean of at least three independent experiments, read-out: Human CB2 receptor binding pK1 (converted)
T3 construct: expressed in transfected cells; host or cells: CHO cells, stably transfected; membrane preparation
Protocol: In Vitro Affinity for Cannabinoid-CB2 Receptors
as §1, with “CB2” for “CB1”

human CB2 receptor = molecular target: T4, human CB2 receptor (Homo sapiens, UniProt P34972); assay: In vitro cannabinoid-CB2 receptor (ant)agonism: forskolin-stimulated cAMP accumulation (adenylate cyclase activity) in CHO K1 cells; assay type: cell-based; conditions: for EC50: agonism, 3x10^-7 M forskolin, read-out: Human CB2 CB2-mediated adenylate cyclase activity pEC50 (converted)
T4 construct: host or cells: CHO K1 cells
Protocol: In Vitro Cannabinoid-CB2 Receptor (Ant)Agonism
Functional activity at the cannabinoid CB2 receptor was assessed using a forskolin-stimulated cAMP accumulation assay. The ability of compounds to stimulate and inhibit adenylate cyclase activity was assessed in Chinese ovarian hamster (CHO) K1 cells expressing human CB2 (Euroscreen, Brussel) receptor. CHO cells were grown in a CHO—S—SFM-II culture medium, supplemented with 10% heat-inactivated foetal calf serum, 2 mM glutamine, 400 μg/ml Hygromycine B and 500 μg/ml G418 at 37° C. in 93% air/5% CO2. For incubation with test compounds, confluent cultures grown in 24 well plates were used. Each condition or substance was routinely tested in quadruplicate. Cells were loaded with 1 mCi [^3H]-adenine in 0.5 ml medium per well. After 2 hours, cultures were washed with 0.5 ml PBS containing 1 mM IBMX and incubated for 20 minutes with 0.5 ml PBS containing 1 mM IBMX and 3×10^−7 M forskolin with or without the test compound. Antagonistic effects of test compounds were determined as inhibition of 0.1 μM JWH-133-decreased [^3H]cAMP formation. After aspiration the reaction was stopped with 1 ml trichloroacetic acid (5% w/v). The [3H]-ATP and [^3H]-cAMP formed in the cellular extract were assayed as follows: a volume of 0.8 ml of the extract was passed over Dowex (50WX-4200-400 mesh) and aluminum oxide columns, eluted with water and 0.1 M imidazole (pH=7.5). Eluates were mixed with 7 ml Ultima-Flo [AP] and the β-radioactivity was counted with a liquid scintillation counter. The conversion of [^3H]-ATP into [^3H]-cAMP was expressed as the ratio in percentage radioactivity in the cAMP fraction as compared to the combined radioactivity in both cAMP and ATP fractions, and basal activity was subtracted to correct for spontaneous activity. […] Compounds were studied in a concentration range of 10^−10 M to 10^−6M. pEC50 and the pA2 were calculated according to Cheng-Prusoff equation (Cheng and Prusoff, 1973). […]

T2 sequence (P21554 whole entry): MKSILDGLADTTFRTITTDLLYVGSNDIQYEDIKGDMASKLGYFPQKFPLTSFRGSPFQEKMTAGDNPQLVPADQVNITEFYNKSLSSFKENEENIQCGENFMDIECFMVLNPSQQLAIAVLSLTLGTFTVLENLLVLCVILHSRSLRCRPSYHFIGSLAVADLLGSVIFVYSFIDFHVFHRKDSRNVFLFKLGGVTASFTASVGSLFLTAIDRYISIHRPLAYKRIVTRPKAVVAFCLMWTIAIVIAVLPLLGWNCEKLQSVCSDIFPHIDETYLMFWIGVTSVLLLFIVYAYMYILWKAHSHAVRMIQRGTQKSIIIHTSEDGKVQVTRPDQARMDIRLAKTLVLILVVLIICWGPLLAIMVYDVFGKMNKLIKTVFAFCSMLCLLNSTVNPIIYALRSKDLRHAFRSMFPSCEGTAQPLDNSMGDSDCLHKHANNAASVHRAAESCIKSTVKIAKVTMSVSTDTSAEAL
T1 sequence (P21554 whole entry): as above
T3 sequence (P34972 whole entry): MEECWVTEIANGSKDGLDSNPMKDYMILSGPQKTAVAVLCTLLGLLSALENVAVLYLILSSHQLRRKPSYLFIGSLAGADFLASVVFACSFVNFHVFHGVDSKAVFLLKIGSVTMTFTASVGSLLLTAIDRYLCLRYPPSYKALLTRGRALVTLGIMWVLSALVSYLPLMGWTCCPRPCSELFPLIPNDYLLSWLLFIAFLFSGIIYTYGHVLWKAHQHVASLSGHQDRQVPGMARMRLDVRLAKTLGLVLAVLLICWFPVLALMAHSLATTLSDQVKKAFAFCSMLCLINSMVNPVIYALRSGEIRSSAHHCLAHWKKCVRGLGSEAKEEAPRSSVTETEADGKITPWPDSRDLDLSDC
T4 sequence (P34972 whole entry): as above

Question: For CCCCCC1=NN(C(=O)NC2C3CC4CC(C3)CC2C4)CC1c1ccccc1 (centres unmarked), which melting point is on record?
Answer: 71 °C

Question: With COc1ccc(NC(=O)N2CC(c3ccc(Cl)cc3)C(Cc3ccc(Cl)cc3)=N2)cc1 (centres unmarked) as the molecule, how does the melting point read?
Answer: 116 to 119 °C

Question: Which EC50 (human CB1 receptor) does the source give for CCCCCC1=NN(C(=O)NC[C@@H]2CC[C@H]3C[C@@H]2C3(C)C)CC1c1ccccc1 (relative stereo) [Compound 1, N-[(1R,2S,5R)-rel-6,6-dimethylbicyclo[3.1.1]heptan-2-methyl]-3-(n-pentyl)-4-phenyl-4,5-dihydro-(1H)-pyrazole-1-carboxamide] here?
Answer: 2000 nM

Question: And the Ki [1]?
Answer: 3.98 nM

Question: And the Ki [2]?
Answer: 12.6 nM

Question: With CCCCC1=NN(C(=O)NC[C@@H]2CC[C@H]3C[C@@H]2C3(C)C)CC1c1ccccc1 (relative stereo) [Compound 7, N-[(1R,2S,5R)-rel-6,6-dimethylbicyclo[3.1.1]heptan-2-methyl]-3-(n-butyl)-4-phenyl-4,5-dihydro-(1H)-pyrazole-1-carboxamide] as the molecule, how does the EC50 (human CB1 receptor) read?
Answer: 631 nM

Question: And the Ki [1]?
Answer: 39.8 nM

Question: And the Ki [2]?
Answer: 10 nM

Question: With CCCCCC1=NN(S(=O)(=O)NC[C@@H]2CC[C@H]3C[C@@H]2C3(C)C)CC1c1ccccc1 (relative stereo) [Compound 130, N-[(1R,2S,5R)-rel-6,6-dimethylbicyclo[3.1.1]heptan-2-methyl]-3-(n-pentyl)-4-phenyl-4,5-dihydro-(1H)-pyrazole-1-sulfonamide] as the molecule, how does the Ki [1] read?
Answer: 316 nM

Question: And the Ki [2]?
Answer: 126 nM

Question: What does the source list for CCCCCC1=NN(C(=O)NCC23CC4CC(CC(C4)C2)C3)CC1c1ccccc1 (centres unmarked) [Compound 11, N-(1-Adamantyl)methyl-3-(n-pentyl)-4-phenyl-4,5-dihydro-(1H)-pyrazole-1-carboxamide]?
Answer: EC50 (human CB1 receptor): 2000 nM; Ki [1]: 15.8 nM; Ki [2]: 7.94 nM

Question: With CCCCCC1=NN(C(=O)NCC2CCCCC2)CC1c1ccccc1 (centres unmarked) [Compound 12, N-(Cyclohexylmethyl)-3-(n-pentyl)-4-phenyl-4,5-dihydro-(1H)-pyrazole-1-carboxamide] as the molecule, how does the Ki [1] read?
Answer: 15.8 nM

Question: And the Ki [2]?
Answer: 50.1 nM

Question: Which EC50 (human CB1 receptor) does the source give for CCCCCC1=NN(C(=O)N[C@H]2C[C@H]3CC[C@]2(C)C3(C)C)CC1c1ccccc1 (stereo partly drawn) [Compound 13, N-[Endo-(1R,2S,4R)-1,7,7-trimethylbicyclo[2.2.1]hept-2-yl]-3-(n-pentyl)-4-phenyl-4,5-dihydro-(1H)-pyrazole-1-carboxamide] here?
Answer: 0.501 nM

Question: What about the Ki [1] of the same molecule?
Answer: 7.94 nM

Question: And the Ki [2]?
Answer: 7.94 nM

Question: Which Ki [1] does the source give for CCCCCC1=NN(C(=O)Nc2cccc3ccccc23)CC1c1ccccc1 (centres unmarked) [Compound 18, N-(1-Naphtyl)-3-(n-pentyl)-4-phenyl-4,5-dihydro-(1H)-pyrazole-1-carboxamide] here?
Answer: 6.31 nM

Question: What about the Ki [2] of the same molecule?
Answer: 31.6 nM

Question: Which EC50 (human CB2 receptor) does the source give for CCCCC1=NN(C(=O)NC(C)(C)Cc2ccccc2)CC1c1cccc(F)c1 (centres unmarked) [Compound 39, N-(2-phenyl-1,1-dimethyl-ethyl)-3-(n-butyl)-4-(3-fluorophenyl)-4,5-dihydro-(1H)-pyrazole-1-carboxamide] here?
Answer: 7.94 nM

Question: What about the Ki [1] of the same molecule?
Answer: 3980 nM

Question: And the Ki [2]?
Answer: 126 nM

Question: Which results are given for CCCCC1=NN(C(=O)NC(C)(C)Cc2ccccc2)CC1c1ccccc1F (centres unmarked) [Compound 40, N-(2-phenyl-1,1-dimethyl-ethyl)-3-(n-butyl)-4-(2-fluorophenyl)-4,5-dihydro-(1H)-pyrazole-1-carboxamide]?
Answer: EC50 (human CB2 receptor): 7.94 nM; Ki [1]: 1580 nM; Ki [2]: 158 nM

Question: Which Ki [1] does the source give for O=C(Nc1ccccc1)N1CC(c2ccc(Cl)cc2)C(Cc2ccc(Cl)cc2)=N1 (centres unmarked) [Compound 41, N-Phenyl-3-(4-chlorobenzyl)-4-(4-chlorophenyl)-4,5-dihydro-(1H)-pyrazole-1-carboxamide] here?
Answer: 316 nM

Question: And the melting point?
Answer: 156 °C

Question: And the Ki [2]?
Answer: 200 nM

Question: Which results are given for CC1(C)[C@@H]2CC[C@@]1(C)[C@@H](NC(=O)N1CC(c3ccccc3)C(CC3CC3)=N1)C2 (stereo partly drawn) [Compound 54, N-[Endo-(1R,2S,4R)-1,7,7-trimethylbicyclo[2.2.1]hept-2-yl]-3-(cyclopropylmethyl)-4-phenyl-4,5-dihydro-(1H)-pyrazole-1-carboxamide]?
Answer: EC50 (human CB1 receptor): 251 nM; Ki [1]: 25.1 nM; Ki [2]: 39.8 nM

Question: What does the source list for CCCCCC1=NN(C(=O)c2cccc3ccccc23)CC1c1ccccc1 (centres unmarked) [Compound 87, 1-(1-Naphtoyl)-3-(n-pentyl)-4-phenyl-4,5-dihydro-(1H)-pyrazole]?
Answer: EC50 (human CB1 receptor): 15.8 nM; Ki [1]: 79.4 nM; Ki [2]: 100 nM

Question: Which results are given for CCCCCC1=NN(C(=O)N[C@H]2C[C@H]3CC[C@]2(C)C3(C)C)CC1c1ccccc1 (stereo partly drawn) [Compound 97, N-Endo-[(1R,2S,4R)-1,7,7-trimethylbicyclo[2.2.1]hept-2-yl]-3-(n-pentyl)-4-phenyl-4,5-dihydro-(1H)-pyrazole-1-carboxamide]?
Answer: Human CB2 CB2-mediated adenylate cyclase activity pA2 (human CB2 receptor; antagonism of 0.1 μM JWH-133-decreased [3H]cAMP formation): 9.2; EC50 (human CB1 receptor): < 1 nM; Ki [1]: 5.01 nM; Ki [2]: 5.01 nM

Question: What does the source list for CCCCCC1=NN(C(=O)NC2CCCCCC2)CC1c1ccccc1 (centres unmarked) [Compound 109, N-cycloheptyl-3-(n-pentyl)-4-phenyl-4,5-dihydro-(1H)-pyrazole-1-carboxamide]?
Answer: Ki [1]: 6.31 nM; Ki [2]: 25.1 nM
